# In ChEMBL document CHEMBL5505986, “Design, synthesis and biological evaluation of thiazolyl-halogenated pyrroles or pyrazoles as novel antibacterial and antibiofilm agents” (Eur J Med Chem, 2024):
# Calls of active or inactive are those of the source. The calls are words filed in the database; no cut-off is given here.
# Assays:
# Enterococcus faecium [1] = assay: Antibacterial activity against clinical isolate Enterococcus faecium assessed as reduction in bacterial growth incubated for 24 hrs by broth microdilution method; assay type: functional
# Streptococcus pyogenes = assay: Antibacterial activity against Streptococcus pyogenes ATCC 12204 assessed as reduction in bacterial growth incubated for 24 hrs by broth microdilution method; assay type: functional
# Staphylococcus aureus [2] = assay: Antibacterial activity against vancomycin-intermediate resistant Staphylococcus aureus ATCC 700699/Mu50 assessed as reduction in bacterial growth incubated for 24 hrs by broth microdilution method; assay type: functional
# Enterococcus faecium [3] = assay: Antibacterial activity against Enterococcus faecium Efm-HS0649 assessed as reduction in bacterial growth incubated for 24 hrs by broth microdilution method; assay type: functional
# Pseudomonas aeruginosa [4] = assay: Antibiofilm activity against Pseudomonas aeruginosa ATCC 47085 at sub-MIC doses measured after 24 hrs by crystal violet staining based analysis; assay type: functional
# Staphylococcus aureus [5] = assay: Antibiofilm activity against vancomycin-intermediate resistant Staphylococcus aureus ATCC 700699/Mu50 at sub-MIC doses measured after 24 hrs by crystal violet staining based analysis; assay type: functional
# Enterococcus faecium [6] = assay: Antibacterial activity against Enterococcus faecium Efm-HS06188 assessed as reduction in bacterial growth incubated for 24 hrs by broth microdilution method; assay type: functional
# Enterococcus faecium [7] = assay: Antibiofilm activity against Enterococcus faecium clinical isolate at sub-MIC doses measured after 24 hrs by crystal violet staining based analysis; assay type: functional
# Klebsiella pneumoniae = assay: Antibacterial activity against Klebsiella pneumoniae ATCC 13883 assessed as reduction in bacterial growth incubated for 24 hrs by broth microdilution method; assay type: functional
# Pseudomonas aeruginosa [8] = assay: Antibacterial activity against Pseudomonas aeruginosa ATCC 47085 assessed as reduction in bacterial growth incubated for 24 hrs by broth microdilution method; assay type: functional
# Acinetobacter baumannii = assay: Antibacterial activity against Acinetobacter baumannii ATCC 19606 assessed as reduction in bacterial growth incubated for 24 hrs by broth microdilution method; assay type: functional
# Enterococcus faecium [9] = assay: Antibiofilm activity against Enterococcus faecium clinical isolate at 1/8 times MIC measured after 24 hrs by crystal violet staining based analysis; assay type: functional, organism-based
# Staphylococcus aureus [10] = assay: Antibiofilm activity against vancomycin-intermediate resistant Staphylococcus aureus ATCC 700699/Mu50 at 1/8 time MIC measured after 24 hrs by crystal violet staining based analysis; assay type: functional, organism-based
# Pseudomonas aeruginosa [11] = assay: Antibiofilm activity against Pseudomonas aeruginosa ATCC 47085 at 8 to 16 ug/ml measured after 24 hrs by crystal violet staining based analysis; assay type: functional, organism-based; settings: dose 8-16 µg/ml
Molecule,MIC (Enterococcus faecium [1]) [µg/mL],MIC (Streptococcus pyogenes) [µg/mL],MIC (Staphylococcus aureus [2]) [µg/mL],MIC (Enterococcus faecium [3]) [µg/mL],Activity (Pseudomonas aeruginosa [4]),Activity (Staphylococcus aureus [5]),MIC (Enterococcus faecium [6]) [µg/mL],Activity (Enterococcus faecium [7]),MIC (Klebsiella pneumoniae) [µg/mL],MIC (Pseudomonas aeruginosa [8]) [µg/mL],MIC (Acinetobacter baumannii) [µg/mL],Activity (Enterococcus faecium [9]),Activity (Staphylococcus aureus [10]),Activity (Pseudomonas aeruginosa [11])
O=[N+]([O-])c1ccc(O)c(-c2csc(-c3cc(Cl)c(Cl)[nH]3)n2)c1,> 256,32,> 256,,,,,,,,,,,
CN[C@H](CC(C)C)C(=O)N[C@H]1C(=O)N[C@@H](CC(N)=O)C(=O)N[C@H]2C(=O)N[C@H]3C(=O)N[C@H](C(=O)N[C@H](C(=O)O)c4cc(O)cc(O)c4-c4cc3ccc4O)[C@H](O)c3ccc(c(Cl)c3)Oc3cc2cc(c3O[C@@H]2O[C@H](CO)[C@@H](O)[C@H](O)[C@H]2O[C@H]2C[C@](C)(N)[C@H](O)[C@H](C)O2)Oc2ccc(cc2Cl)[C@H]1O [VANCOMYCIN],16,0.25,8,> 256,inactive,inactive,> 256,inactive,,,,,,
O=[N+]([O-])c1cc(-c2nc(-c3cc(C(F)(F)F)cc(Br)c3O)cs2)[nH]n1,> 256,4,8,,,,,,,,,,,
POLYMYXIN B,,,,,inactive,inactive,,inactive,2,4,2,,,
Oc1c(Br)cc(Br)cc1-c1csc(-c2cc(Cl)c(Cl)[nH]2)n1,> 256,> 256,> 256,,,,,,,,,,,
Oc1c(Cl)cc(Cl)cc1-c1csc(-c2cc(C(F)(F)F)n[nH]2)n1,4,4,4,,>60%,>60%,,>60%,> 256,> 256,> 256,Active,Active,Active
Oc1ccccc1-c1csc(-c2cc(Cl)c(Cl)[nH]2)n1,> 256,> 256,> 256,,,,,,,,,,,
Oc1c(Br)cc(Br)cc1-c1csc(-c2cc(Br)c(Br)[nH]2)n1,> 256,2,> 256,,,,,,,,,,,
Oc1c(Cl)cc(Cl)cc1-c1csc(-c2cc(Cl)c(Cl)[nH]2)n1,> 256,> 256,> 256,,,,,,,,,,,
Oc1c(Br)cc(Br)cc1-c1csc(-c2cc(C(F)(F)F)n[nH]2)n1,4,4,2,,>60%,>60%,,>60%,> 256,> 256,> 256,Active,Active,Active
O=[N+]([O-])c1cc(-c2nc(-c3cc(Cl)cc(Cl)c3O)cs2)[nH]n1,> 256,8,128,,,,,,,,,,,
Oc1c(Br)cc(C(F)(F)F)cc1-c1csc(-c2cc(Cl)c(Cl)[nH]2)n1,> 256,≤ 0.125,1,,,,,,,,,,,
